Test results reported in ChEMBL document CHEMBL1134923, “Novel semi-synthetic glycopeptide antibiotics active against methicillin-resistant staphylococcus aureus (MRSA) and vancomycin-resistant Enterococci (VRE): doubly-modified water-soluble derivatives of chloroorienticin B” (Bioorg Med Chem Lett, 2002).
≈ marks a conversion by molar mass, not a printed value.

Experiments:
[1] = system: Enterococcus faecium; experiment: Minimum Inhibitory Concentration against Enterococcus faecium SR-7917 (VRE) was determined; format: functional
[2] = system: Staphylococcus aureus; experiment: Minimum Inhibitory Concentration against Staphylococcus aureus SR-3637 (MRSA) was determined; format: functional
[3] = Solubility in water was determined; format: physicochemical
[4] = system: Enterococcus faecalis; experiment: Minimum Inhibitory Concentration against Enterococcus faecalis SR-7914 (VRE) was determined; format: functional

CN[C@H](CC(C)C)C(=O)N[C@H]1C(=O)N[C@@H](CC(N)=O)C(=O)N[C@H]2C(=O)N[C@H]3C(=O)N[C@H](C(=O)N[C@H](C(=O)O)c4cc(O)cc(O)c4-c4cc3ccc4O)[C@H](O)c3ccc(c(Cl)c3)Oc3cc2cc(c3O[C@@H]2O[C@H](CO)[C@@H](O)[C@H](O)[C@H]2O[C@H]2C[C@](C)(N)[C@H](O)[C@H](C)O2)Oc2ccc(cc2Cl)[C@H]1O [VANCOMYCIN]
MIC [1]: > 100 µg/mL
MIC [2]: 1.56 µg/mL (≈ 1.08 µM)
Solubility [3]: > 10%
MIC [4]: > 100 µg/mL

CN[C@H](CC(C)C)C(=O)N[C@H]1C(=O)N[C@@H](CC(N)=O)C(=O)N[C@H]2C(=O)NC3C(=O)NC(C(=O)N[C@@H](C(=O)O)c4cc(O)cc(O)c4-c4cc3ccc4O)[C@H](O[C@H]3C[C@](C)(NCc4ccc(C#Cc5ccc(Cl)cc5)cc4)[C@@H](O)[C@H](C)O3)c3ccc(c(Cl)c3)Oc3cc2cc(c3O[C@@H]2O[C@H](CO)[C@@H](O)[C@H](O)[C@H]2O)Oc2ccc(cc2Cl)[C@H]1O (some centres not stated)
MIC [1]: 6.25 µg/mL (≈ 3.73 µM)
MIC [2]: 0.2 µg/mL (≈ 0.119 µM)
MIC [4]: 12.5 µg/mL (≈ 7.47 µM)

CN[C@H](CC(C)C)C(=O)N[C@H]1C(=O)N[C@@H](CC(N)=O)C(=O)N[C@H]2C(=O)NC3C(=O)NC(C(=O)N[C@@H](C(=O)O)c4cc(O)cc(O)c4-c4cc3ccc4O)[C@H](O[C@H]3C[C@](C)(NCc4ccc(-c5ccc(-c6ccccc6)cc5)cc4)[C@@H](O)[C@H](C)O3)c3ccc(c(Cl)c3)Oc3cc2cc(c3O[C@@H]2O[C@H](CO)[C@@H](O)[C@H](O)[C@H]2O)Oc2ccc(cc2Cl)[C@H]1O (some centres not stated)
MIC [1]: 3.13 µg/mL (≈ 1.85 µM)
MIC [2]: 0.39 µg/mL (≈ 0.231 µM)
MIC [4]: 12.5 µg/mL (≈ 7.39 µM)

CN[C@H](CC(C)C)C(=O)N[C@H]1C(=O)N[C@@H](CC(N)=O)C(=O)N[C@H]2C(=O)NC3C(=O)NC(C(=O)N[C@@H](C(=O)O)c4cc(O)cc(O)c4-c4cc3ccc4O)[C@H](O[C@H]3C[C@](C)(N)[C@@H](O)[C@H](C)O3)c3ccc(c(Cl)c3)Oc3cc2cc(c3O[C@@H]2O[C@H](CO)[C@@H](O)[C@H](O)[C@H]2O)Oc2ccc(cc2Cl)[C@H]1O (some centres not stated)
MIC [1]: > 100 µg/mL
MIC [2]: 0.78 µg/mL (≈ 0.538 µM)
Solubility [3]: > 10%
MIC [4]: > 100 µg/mL

CCCCCCCOc1ccc(CN[C@@]2(C)C[C@H](O[C@@H]3c4ccc(c(Cl)c4)Oc4cc5cc(c4O[C@@H]4O[C@H](CO)[C@@H](O)[C@H](O)[C@H]4O)Oc4ccc(cc4Cl)[C@@H](O)[C@@H](NC(=O)[C@@H](CC(C)C)NC)C(=O)N[C@@H](CC(N)=O)C(=O)N[C@H]5C(=O)NC4C(=O)NC3C(=O)N[C@@H](C(=O)O)c3cc(O)cc(O)c3-c3cc4ccc3O)O[C@@H](C)[C@@H]2O)cc1 (some centres not stated)
MIC [1]: 12.5 µg/mL (≈ 7.56 µM)
MIC [2]: 0.39 µg/mL (≈ 0.236 µM)
MIC [4]: 25 µg/mL (≈ 15.1 µM)

CCCCCCCCCCCCCN[C@@]1(C)C[C@H](O[C@@H]2c3ccc(c(Cl)c3)Oc3cc4cc(c3O[C@@H]3O[C@H](CO)[C@@H](O)[C@H](O)[C@H]3O)Oc3ccc(cc3Cl)[C@@H](O)[C@@H](NC(=O)[C@@H](CC(C)C)NC)C(=O)N[C@@H](CC(N)=O)C(=O)N[C@H]4C(=O)NC3C(=O)NC2C(=O)N[C@@H](C(=O)O)c2cc(O)cc(O)c2-c2cc3ccc2O)O[C@@H](C)[C@@H]1O (some centres not stated)
MIC [1]: 6.25 µg/mL (≈ 3.83 µM)
MIC [2]: 0.2 µg/mL (≈ 0.123 µM)
MIC [4]: 12.5 µg/mL (≈ 7.66 µM)

CN[C@H](CC(C)C)C(=O)N[C@H]1C(=O)N[C@@H](CC(N)=O)C(=O)N[C@H]2C(=O)NC3C(=O)NC(C(=O)N[C@@H](C(=O)O)c4cc(O)cc(O)c4-c4cc3ccc4O)[C@H](O[C@H]3C[C@](C)(NCc4ccc(-c5ccc(Cl)cc5)cc4)[C@@H](O)[C@H](C)O3)c3ccc(c(Cl)c3)Oc3cc2cc(c3O[C@@H]2O[C@H](CO)[C@@H](O)[C@H](O)[C@H]2O)Oc2ccc(cc2Cl)[C@H]1O (some centres not stated)
MIC [1]: 6.25 µg/mL (≈ 3.79 µM)
MIC [2]: 0.1 µg/mL (≈ 0.0606 µM)
MIC [4]: 12.5 µg/mL (≈ 7.58 µM)

CN[C@H](CC(C)C)C(=O)N[C@H]1C(=O)N[C@@H](CC(N)=O)C(=O)N[C@H]2C(=O)NC3C(=O)NC(C(=O)N[C@@H](C(=O)O)c4cc(O)cc(O)c4-c4cc3ccc4O)[C@H](O[C@H]3C[C@](C)(NCc4ccc(/C=C/c5ccc(Cl)cc5)cc4)[C@@H](O)[C@H](C)O3)c3ccc(c(Cl)c3)Oc3cc2cc(c3O[C@@H]2O[C@H](CO)[C@@H](O)[C@H](O)[C@H]2O)Oc2ccc(cc2Cl)[C@H]1O (some centres not stated)
MIC [1]: 6.25 µg/mL (≈ 3.73 µM)
MIC [2]: 0.2 µg/mL (≈ 0.119 µM)
Solubility [3]: < 1%
MIC [4]: 6.25 µg/mL (≈ 3.73 µM)
